Data taken from patent publication US6559177B2, “5, 11-Dioxa-benzo[b]fluoren-10-one and 5-oxa-11-thia-benzo[b]fluoren-10-ones as estrogenic agents” (Wyeth, priority 2001, dated 2003).
Like-named read-outs stand apart in the source and are kept apart here.

How the values were obtained:
human ERα = target: T1, human ERα (Homo sapiens, UniProt P03372); assay: Competition with [3H]-17β-estradiol for binding to ERα ligand binding domain; details: E. coli lysate expressing ER ligand binding domains (D,E,&F); 2 nM [3H]-17β-estradiol; 5-15 hours at room temperature
T1 construct: made in house; host or cells: E. coli (crude lysate)
T1 sequence (P03372 311-547 limits assumed): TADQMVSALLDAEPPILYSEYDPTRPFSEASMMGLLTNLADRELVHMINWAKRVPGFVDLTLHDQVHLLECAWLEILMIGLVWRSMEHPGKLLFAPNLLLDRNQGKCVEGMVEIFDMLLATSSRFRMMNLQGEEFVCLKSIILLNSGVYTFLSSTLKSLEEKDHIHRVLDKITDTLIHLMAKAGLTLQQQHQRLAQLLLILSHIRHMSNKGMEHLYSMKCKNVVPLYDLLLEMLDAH
Procedure: (§1) This test procedure provides the methodology for one to determine whether a particular compound binds to the estrogen receptor (and is therefore “estrogenic”) and whether there is selectivity for ERα or ERβ. […] The procedure used is briefly described below. A crude lysate of E. coli expressing the estrogen receptor ligand binding domains (D,E, & F) of human ERα or ERβ was prepared. Both receptors and compounds were diluted in 1× Dulbecco's PBS (DPBS) supplemented with 1 mM EDTA. […] After between 5 and 15 hours at room temperature, the plates were washed with DPBS/1 mM EDTA and bound radioactivity determined by liquid scintillation counting.

human ERβ = target: T2, human ERβ (Homo sapiens, UniProt Q92731); assay: Competition with [3H]-17β-estradiol for binding to ERβ ligand binding domain
T2 construct: made in house; host or cells: E. coli (crude lysate)
Procedure: as §1

[1] = E. coli lysate expressing ER ligand binding domains (D,E,&F); 2 nM [3H]-17β-estradiol; 5-15 hours at room temperature; read-out: ERβ IC50
[2] = read-out: ERβ IC50; E. coli lysate expressing ER ligand binding domains (D,E,&F); 2 nM [3H]-17β-estradiol; 5-15 hours at room temperature

T2 sequence (Q92731 264-498 limits assumed): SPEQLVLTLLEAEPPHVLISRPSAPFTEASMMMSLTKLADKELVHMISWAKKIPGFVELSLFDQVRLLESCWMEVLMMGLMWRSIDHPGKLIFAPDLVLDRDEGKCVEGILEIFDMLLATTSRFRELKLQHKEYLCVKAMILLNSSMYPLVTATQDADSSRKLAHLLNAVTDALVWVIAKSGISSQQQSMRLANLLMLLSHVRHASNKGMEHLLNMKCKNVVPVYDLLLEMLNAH

IC50 (human ERα) | IC50 (human ERβ; [1]) | SMILES | IC50 (human ERβ; [2])
3670 nM | 760 nM | O=c1c2sc3ccccc3c2oc2cc(O)cc(O)c12 [7,9-Dihydroxy-5-oxa-11-thia-benzo[b]fluoren-10-one] | –
188 nM | 44 nM | O=c1c2cc(O)ccc2oc2c1oc1ccc(O)cc12 [3,8-Dihydroxy-5,11-dioxa[b]fluoren-10-one] | –
> 5000 nM | 2710 nM | O=c1c2ccc(O)cc2oc2c1oc1c3ccccc3ccc21 [9-Hydroxy-7,13-dioxa-dibenzo[a,h]fluoren-12-one] | –

Continued, compound first:

SMILES | IC50 (human ERα) | IC50 (human ERβ; [1]) | IC50 (human ERβ; [2])
O=c1c2ccc(O)cc2oc2c1sc1ccccc12 [7-Hydroxy-5-oxa-11-thia-benzo[b]fluoren-10-one] | – | – | 2930 nM
O=c1c2cc(O)ccc2oc2c1oc1cc(O)ccc12 [2,8-Dihydroxy-5,11-dioxa[b]fluoren-10-one] | 1500 nM | 192 nM | –
O=c1c2oc3ccc(O)cc3c2oc2cc(O)cc(O)c12 [3,7,9-Trihydroxy-5,11-dioxa-benzo[b]fluoren-10-one] | 2950 nM | 70 nM | –
O=c1c2ccc(O)cc2oc2c1oc1ccc(O)cc12 [3,7-Dihydroxy-5,11-dioxa[b]fluoren-10-one] | – | 850 nM | –
O=c1c2ccc(O)cc2oc2c1oc1cc(O)ccc12 [2,7-Dihydroxy-5,11-dioxa-benzo[b]fluoren-10-one] | 550 nM | 32 nM | –
O=c1c2oc3ccccc3c2oc2cc(O)cc(O)c12 [7,9-Dihydroxy-5,11-dioxa-benzo[b]fluoren-10-one] | – | – | 3190 nM
